Test results: patent US20200071667A1, “COMPOSITION COMPRISING GLYCYRRHIZIN FOR INDUCING DIFFERENTIATION INTO MYELOID-DERIVED SUPPRESSOR CELL FROM MYELOID CELL” (Konkuk University Glocal Industry-Academic Collabo, priority 2018, published 2020)

Key:
Format in all cases: in vivo, C57BL/6 mice
IL-1β = test: ELISA of IL-1β in BALF and blood of mice with LPS-induced sepsis; conditions: 12 hours after final injection
Procedure: (§1) Specifically, 0.1 ml of phosphate buffered saline (PBS; Gibco, Grand Island, N.Y., USA) was injected intraperitoneally (i.p.) into mice of the control, and 12 hours after the injection, 0.1 ml of PBS was intraperitoneally injected again into each mouse. 1 μg of LPS (Escherichia coli serotype 0111:B4, Sigma-Aldrich, St. Louis, Mo., USA) dissolved in 0.1 ml of PBS was injected intraperitoneally (i.p.) into mice of the LPS group to induce sepsis, and 12 hours after sepsis induction, 0.1 ml of PBS was intraperitoneally injected into each mouse. […]
(§2) Specifically, for the analysis of bronchoalveolar lavage fluid and blood, 12 hours after the final injection into mice of each experimental group of Example 1, 1 μg/g of Zoletil®50 (a combined preparation of tiletamine and zolazepam, Virbac Laboratories, Carros, France) as an anesthetic and 0.1 U/g of heparin sodium (Green Cross Co., Yongin, Korea) were intraperitoneally injected into each mouse to minimize the effect of aches or pains on immunity. […] The levels of tumor necrosis factor (TNF)-α, IL-6, and IL-1β in BALF and blood were measured using a mouse enzyme-linked ELISA kit (R&D Systems Inc., Minneapolis, Minn., USA) according to the manufacturer's instructions. Samples collected from each group were analyzed in triplicate.

[1] = test system: Toll-like receptor 4 (TLR4); test: Western blotting of TLR4 in heart or lung tissues
Procedure: (§3) Specifically, 0.1 ml of phosphate buffered saline (PBS; Gibco, Grand Island, N.Y., USA) was injected intraperitoneally (i.p.) into mice of the control, and 12 hours after the injection, 0.1 ml of PBS was intraperitoneally injected again into each mouse. 1 μg of LPS (Escherichia coli serotype 0111:B4, Sigma-Aldrich, St. Louis, Mo., USA) dissolved in 0.1 ml of PBS was injected intraperitoneally (i.p.) into mice of the LPS group to induce sepsis, and 12 hours after sepsis induction, 0.1 ml of PBS was intraperitoneally injected into each mouse. 1 μg of LPS and 100 mg/kg of ammonium glycyrrhizinate (GR; Abcam Inc., Cambridge, UK) dissolved in 0.1 ml of PBS were injected intraperitoneally (i.p.) into mice of the LPS+GR group, and 12 hours after the injection, 100 mg/kg of ammonium glycyrrhizinate dissolved in 0.1 ml of PBS was intraperitoneally injected into each mouse.
(§4) It was determined whether TLR4 expression levels were inhibited when mice with sepsis induced by LPS were treated with glycyrrhizin. The expression level of Toll-like receptor 4 (TLR4) was confirmed using immunohistochemistry and western blot analysis.
Western blotting was performed to confirm the intensity of TLR4 staining. […] Band intensity was quantified using Luminescent Image Analyzer LAS-3000 (FUJIFILM Medical Systems, Hanover Park, Ill., USA). The density of each band was analyzed using NIH Image J software.

[2] = test system: tumor necrosis factor (TNF)-α; test: ELISA of TNF-α in BALF and blood of mice with LPS-induced sepsis; conditions: 12 hours after final injection
Procedure: as §1, §2

[3] = test system: heart tissues and lung tissues; test: Histopathologic analysis and injury score of heart and lung tissues in LPS-induced sepsis; conditions: 5-point scale 0-4; LPS 1 μg i.p.; GR 100 mg/kg i.p. twice
Procedure: Animal experiments were performed according to the National Institutes of Health (NIH) guidelines for the care and use of experimental animals. This study was conducted with the approval of the Konkuk University Animal Care and Use Committee (KU16062). 8-week-old male C57BL/6 mice without specific pathogens were used, and as needed, experimental groups were divided into three groups: a control, an LPS group, and an LPS+GR group.
Specifically, 0.1 ml of phosphate buffered saline (PBS; Gibco, Grand Island, N.Y., USA) was injected intraperitoneally (i.p.) into mice of the control, and 12 hours after the injection, 0.1 ml of PBS was intraperitoneally injected again into each mouse. […]
Specifically, the heart tissues and lung tissues of mice of each experimental group prepared in Example 1 were fixed in a 4% paraformaldehyde solution (Biosesang, Seongnam, Korea) at 25° C. overnight and inserted into paraffin blocks. […] Heart (including left and right ventricles) or lung injury was scored based on Table 2 below. Each score was determined by a 5-point scale such as 0: minimal injury, 1: minor injury, 2: moderate injury, 3: severe injury, and 4: maximum injury.

[4] = test system: Toll-like receptor 4 (TLR4); test: Immunohistochemical staining for TLR4 in heart or lung tissues; conditions: heart and lungs
Procedure: as §3, §4
Specifically, for immunohistochemical staining for TLR4, the heart or lung tissues of mice of each experimental group of Example 1 were cut to 4 μm after deparaffinization treatment. […] TLR4 intensity was quantified using NIH Image J software.

lipopolysaccharide [LPS]
IL-1β (IL-1β; BALF): 164.82 ± 17.81 pg/µL | IL-1β (IL-1β; Blood): 126.28 ± 7.61 pg/µL | TLR4 intensity by western blotting ([1]; heart): 403.9±29.3 | TLR4 intensity by western blotting ([1]; lungs): 350.7±21.3 | TNF-α ([2]; BALF): 284.20 ± 56.96 pg/µL | TNF-α ([2]; Blood): 98.78 ± 9.17 pg/µL | injury score, heart tissues [3]: 3.3±0.8 | injury score, lung tissues [3]: 3.5±0.5 | expression level of TLR4 by immunohistochemistry [4]: significantly higher in both the heart and the lungs compared to the control
